The target of experiment [1] is HCoV-229E Mpro (Human coronavirus 229E, UniProt P0C6X1). The experiment in a line: HCoV-229E Mpro enzymatic inhibition assay (fluorescence). The experiment is classed as biochemical. The procedure:
(§1) The hCoV Mpro are cloned, expressed in E. coli and purified by WuXi AppTec Co., Ltd. The substrate are synthesized by Genscript Biotech.
(§2) Compounds are 3 fold serially diluted for 10 doses and added to an assay plate (384w format) using ECHO, in duplicate wells. The test concentration of test compounds is defined by sponsor. […] For no inhibition control (ZPE, zero percent effect), DMSO is added.
(§3) 25 μL of Mpro proteins are added to the assay plates containing compounds, respectively, using Multidrop. The compounds and Mpro proteins are pre-incubated at room temperature for 30 min. Then 5 µL of Mpro substrates are added to the related assay plates, respectively. Each activity testing point has a relevant background control to normalize the fluorescence interference of compound.
(§4) After 60 min incubation at 30° C., the fluorescence signal (RFU) is detected using a microplate reader M2e (SpectraMax) at Ex/Em=340 nm/490 nm.
(§5) The inhibition activity is calculated using the formula below, IC50 values will be calculated using the Inhibition % data.
(§6) Inhibition %=[(CPD−BGCPD)−(ZPE−BGZPE)/(HPE−BGHPE)−(ZPE−BGZPE)]×[…] • CPD: Signal of test compounds wells, containing compound+enzyme+substrate. • ZPE: Average of signals of zero percent effective control wells, containing enzyme+substrate, no compound. • HPE: Average of signals of hundred percent effect control wells, containing GC376+enzyme+substrate. • BG: Compound background control wells, containing compound+substrate, no enzyme
(§7) IC50 values of compounds are calculated with the GraphPad Prism software using the nonlinear regression model of log(inhibitor) vs. response—Variable slope (four parameters).

The target of experiment [2] is SARS-CoV-1 Mpro (Severe acute respiratory syndrome coronavirus, UniProt P0C6X7). The experiment in a line: biochemical.
In experiment [3] the target is SARS-CoV-2 Mpro (Severe acute respiratory syndrome coronavirus 2, UniProt P0DTD1). Kind of experiment: SARS-CoV-2 Mpro enzymatic inhibition assay (fluorescence). It is filed as biochemical. On the procedure: as §1
Compounds are 3 fold serially diluted for 10 doses and added to an assay plate (384w format) using ECHO, in duplicate wells. The test concentration of test compounds is defined by sponsor.
25 μL of Mpro proteins are added to the assay plates containing compounds, respectively, using Multidrop. The compounds and Mpro proteins are pre-incubated at room temperature for 30 min. Then 5 µL of Mpro substrates are added to the related assay plates, respectively.
as §4, §5, §7

The target in experiment [4] is HCoV-HKU1 Mpro (Human coronavirus HKU1, UniProt P0C6X2). The experiment in a line: HCoV-HKU1 Mpro enzymatic inhibition assay (fluorescence). It is filed as biochemical. On the procedure:
as §1, §2, §3, §4, §5, §6, §7

Experiment [5] addresses HCoV-OC43 Mpro (Human coronavirus OC43, UniProt P0C6X6). The experiment in a line: HCoV-OC43 Mpro enzymatic inhibition assay (fluorescence). The experiment is classed as biochemical. On the procedure:
as §1, §2, §3, §4, §5, §6, §7

For experiment [6], the target named is HCoV-NL63 Mpro (Human coronavirus NL63, UniProt P0C6X5). Kind of experiment: HCoV-NL63 Mpro enzymatic inhibition assay (fluorescence). It is filed as biochemical. The procedure:
as §1, §2, §3, §4, §5, §6, §7

The target in experiment [7] is MERS Mpro (Middle East respiratory syndrome-related coronavirus, UniProt K9N7C7). The experiment in a line: biochemical. Also noted: species or system MERS-CoV.
Chain of MERS Mpro (K9N7C7 3248-3553 limits assumed): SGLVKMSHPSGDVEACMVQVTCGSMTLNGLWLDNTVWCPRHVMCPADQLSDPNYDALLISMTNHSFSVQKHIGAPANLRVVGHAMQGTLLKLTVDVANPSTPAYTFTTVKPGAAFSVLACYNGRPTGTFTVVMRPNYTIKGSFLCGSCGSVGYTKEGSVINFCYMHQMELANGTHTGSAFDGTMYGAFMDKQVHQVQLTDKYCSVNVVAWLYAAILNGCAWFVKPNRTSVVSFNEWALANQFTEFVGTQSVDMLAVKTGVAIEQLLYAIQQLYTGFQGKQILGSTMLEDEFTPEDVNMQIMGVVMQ

Read-outs that look alike come from different tables or passages of the source.

For orientation: IC50 means the concentration at which inhibition is half-maximal.

Chain of HCoV-NL63 Mpro (P0C6X5 2940-3242 limits assumed): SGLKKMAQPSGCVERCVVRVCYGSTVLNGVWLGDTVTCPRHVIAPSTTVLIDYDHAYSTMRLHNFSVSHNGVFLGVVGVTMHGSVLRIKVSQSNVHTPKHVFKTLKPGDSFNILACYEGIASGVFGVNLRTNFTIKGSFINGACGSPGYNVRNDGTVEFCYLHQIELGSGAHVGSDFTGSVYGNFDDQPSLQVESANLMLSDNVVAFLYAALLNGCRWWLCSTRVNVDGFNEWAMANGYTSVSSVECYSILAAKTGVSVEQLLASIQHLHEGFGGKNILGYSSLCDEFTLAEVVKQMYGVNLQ
Chain of HCoV-HKU1 Mpro (P0C6X2 3335-3637 limits assumed): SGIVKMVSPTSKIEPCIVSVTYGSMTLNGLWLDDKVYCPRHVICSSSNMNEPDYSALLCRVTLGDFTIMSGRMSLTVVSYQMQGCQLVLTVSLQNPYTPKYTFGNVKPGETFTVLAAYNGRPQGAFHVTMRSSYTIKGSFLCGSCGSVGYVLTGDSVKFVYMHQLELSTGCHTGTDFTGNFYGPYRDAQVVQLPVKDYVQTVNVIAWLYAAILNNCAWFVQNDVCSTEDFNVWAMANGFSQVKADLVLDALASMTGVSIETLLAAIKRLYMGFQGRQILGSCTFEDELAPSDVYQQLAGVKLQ
Chain of HCoV-229E Mpro (P0C6X1 2966-3267 limits assumed): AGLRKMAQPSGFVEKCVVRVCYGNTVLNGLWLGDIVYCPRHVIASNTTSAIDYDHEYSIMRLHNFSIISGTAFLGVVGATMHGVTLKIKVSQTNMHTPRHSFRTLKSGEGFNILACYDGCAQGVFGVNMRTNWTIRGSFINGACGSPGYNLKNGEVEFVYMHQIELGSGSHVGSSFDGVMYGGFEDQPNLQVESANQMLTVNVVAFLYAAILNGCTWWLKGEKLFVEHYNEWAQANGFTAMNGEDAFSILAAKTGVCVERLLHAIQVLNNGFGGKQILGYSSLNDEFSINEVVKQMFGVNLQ
Chain of HCoV-OC43 Mpro (P0C6X6 3247-3549 limits assumed): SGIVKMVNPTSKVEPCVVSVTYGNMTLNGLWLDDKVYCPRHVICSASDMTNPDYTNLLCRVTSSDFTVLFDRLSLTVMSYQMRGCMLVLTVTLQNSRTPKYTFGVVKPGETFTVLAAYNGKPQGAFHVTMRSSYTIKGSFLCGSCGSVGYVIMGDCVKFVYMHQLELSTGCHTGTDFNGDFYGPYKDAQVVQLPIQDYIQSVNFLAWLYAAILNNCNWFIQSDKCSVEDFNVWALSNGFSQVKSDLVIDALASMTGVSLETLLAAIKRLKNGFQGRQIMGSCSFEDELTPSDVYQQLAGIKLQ

For `O=C[C@H](C[C@@H]1CCNC1=O)NC(=O)[C@@H]1[C@H]2C[C@H]2CN1C(=O)c1cc2ccccc2[nH]1` [Compound 130, (1S,2S,5R)-3-(1H-Indole-2-carbonyl)-N—((S)-1-oxo-3-((S)-2-oxopyrrolidin-3-yl)propan-2-yl)-3-azabicyclo[3.1.0]hexane-2-carboxamide], the IC50 in experiment [1] was 191 nM; in experiment [2] it was 832 nM; in experiment [3], 372 nM; in experiment [4], 87.4 nM; in experiment [5], 398 nM; in experiment [6] it was 130 nM. The same molecule had an IC50 in experiment [7] of 838 nM.

Consider `C[C@H](C(=O)N1C[C@H]2[C@@H]([C@H]1C(=O)N[C@H](C=O)C[C@@H]1CCNC1=O)C2(C)C)c1ccccc1` [Compound 104, (1R,2S,5S)-6,6-Dimethyl-N—((S)-1-oxo-3-((S)-2-oxopyrrolidin-3-yl)propan-2-yl)-3-((S)-2-phenylpropanoyl)-3-azabicyclo[3.1.0]hexane-2-carboxamide], for which the IC50 in experiment [1] was 116 nM; in experiment [2], 114 nM; in experiment [3] (mean, 25 nM protein, 25 μM substrate, 30 min pre-incubation, 60 min at 30° C., read-out: Mpro_SARS-CoV-2 mean IC50), 65.1 nM; in experiment [4], 109 nM; in experiment [5], 197 nM; in experiment [6] it was 861 nM. In experiment [7], this molecule gave an IC50 of 684 nM.

For `CC1(C)[C@@H]2[C@@H](C(=O)N[C@H](C=O)C[C@@H]3CCNC3=O)N(C(=O)C3(c4ccccc4)CC3)C[C@@H]21` [Compound 1, (1R,2S,5S)-6,6-dimethyl-N—((S)-1-oxo-3-((S)-2-oxopyrrolidin-3-yl)propan-2-yl)-3-(1-phenylcyclopropanecarbonyl)-3-azabicyclo[3.1.0]hexane-2-carboxamide], the concentration for half-maximal inhibition (IC50) is 32.4 nM in experiment [1]; 17.3 nM in experiment [2]; 9.53 nM in experiment [3]; 11.4 nM in experiment [4]; 28.4 nM in experiment [5]; 73.7 nM in experiment [6]. Moreover, in experiment [7], the IC50 amounted to 129 nM.

As to `CC1(C)C[C@@H](C(=O)N[C@H](C=O)C[C@@H]2CCNC2=O)N(C(=O)c2cc3cccc(C#N)c3[nH]2)C1` [Compound 58, (S)-1-(7-Cyano-1H-indole-2-carbonyl)-4,4-dimethyl-N—((S)-1-oxo-3-((S)-2-oxopyrrolidin-3-yl)propan-2-yl)pyrrolidine-2-carboxamide], the IC50 in experiment [1] turned out to be 28.5 nM; in experiment [2], 62.8 nM; in experiment [3] it was 25.8 nM; in experiment [4] it was 19 nM; in experiment [5], 56.3 nM; in experiment [6], 40.7 nM. The molecule further had a 50% inhibitory concentration (IC50) in experiment [7] of 338 nM.

`CC1(C)[C@@H]2[C@@H](C(=O)N[C@H](C=O)C[C@@H]3CCNC3=O)N(C(=O)CN3CCCCCC3)C[C@@H]21` [Compound 55, (1R,2S,5S)-3-(2-(Azepan-1-yl)acetyl)-6,6-dimethyl-N—((S)-1-oxo-3-((S)-2-oxopyrrolidin-3-yl)propan-2-yl)-3-azabicyclo[3.1.0]hexane-2-carboxamide]: the concentration for half-maximal inhibition (IC50) in experiment [1] came out at 39.3 nM; in experiment [2], 74.6 nM; in experiment [3], 25.5 nM; in experiment [4], 54.8 nM; in experiment [5], 81 nM; in experiment [6], 70.2 nM. This molecule displayed a half-maximal inhibitory concentration (IC50) in experiment [7] of 317 nM.

`CC1(C)[C@@H]2[C@@H](C(=O)N[C@H](C=O)C[C@@H]3CCNC3=O)N(C(=O)c3[nH]c4ccccc4c3-c3ccccc3)C[C@@H]21` [Compound 122, (1R,2S,5S)-6,6-Dimethyl-N—((S)-1-oxo-3-((S)-2-oxopyrrolidin-3-yl)propan-2-yl)-3-(3-phenyl-1H-indole-2-carbonyl)-3-azabicyclo[3.1.0]hexane-2-carboxamide]: the IC50 turned out to be 172 nM in experiment [1]; 234 nM in experiment [2]; 162 nM in experiment [3]; 366 nM in experiment [4]; 423 nM in experiment [5]; 1020 nM in experiment [6]. The IC50 in experiment [7] stood at 1550 nM.

For the molecule `CC1(C)[C@@H]2[C@@H](C(=O)N[C@H](C=O)C[C@@H]3CCCNC3=O)N(C(=O)c3cc4ccccc4[nH]3)C[C@@H]21` [Compound 11, (1R,2S,5S)-3-(1H-indole-2-carbonyl)-6,6-dimethyl-N—((S)-1-oxo-3-((S)-2-oxopiperidin-3-yl)propan-2-yl)-3-azabicyclo[3.1.0]hexane-2-carboxamide], the IC50 in experiment [1] was found to be 37.2 nM; in experiment [2], 38.4 nM; in experiment [3], 13.2 nM; in experiment [4], 40 nM; in experiment [5], 34.1 nM; in experiment [6] it was 50.6 nM. In addition, 230 nM corresponded to half-maximal inhibition in experiment [7] (IC50).

`O=C[C@H](C[C@@H]1CCNC1=O)NC(=O)[C@@H]1CC2(CC2)CN1C(=O)c1cc2cccc(Cl)c2[nH]1` [Compound 2, (S)-5-(7-chloro-1H-indole-2-carbonyl)-N—((S)-1-oxo-3-((S)-2-oxopyrrolidin-3-yl)propan-2-yl)-5-azaspiro[2.4]heptane-6-carboxamide]: the half-maximal inhibitory concentration (IC50) in experiment [1] amounted to 32.6 nM; in experiment [2] it was 42.5 nM; in experiment [3] it was 9.84 nM; in experiment [4] it was 10.4 nM; in experiment [5] it was 38.2 nM; in experiment [6], 48.4 nM. For the same molecule, the 50% inhibitory concentration (IC50) in experiment [7] turned out to be 199 nM.

For the molecule `CC(C)(C)NC(=O)N[C@H](C(=O)N1C[C@H]2[C@@H]([C@H]1C(=O)N[C@@H](C[C@@H]1CCNC1=O)C(=O)C(N)=O)C2(C)C)C(C)(C)C` [Compound 50, (1R, 2S, 5S)—N—((S)-4-amino-3,4-dioxo-1-((S)-2-oxopyrrolidin-3-yl)butan-2-yl)-3-((S)-2-(3-(tert-butyl)ureido)-3,3-dimethylbutanoyl)-6,6-dimethyl-3-azabicyclo[3.1.0]hexane-2-carboxamide], the IC50 in experiment [1] came out at 130 nM; in experiment [2], 46.9 nM; in experiment [4], 34.2 nM; in experiment [5], 171 nM; in experiment [6], 256 nM; in experiment [7], 621 nM.

Take `CC(C)(C)[C@H](NC(=O)C(F)(F)F)C(=O)N1C[C@H]2[C@@H]([C@H]1C(=O)N[C@H](C=O)C[C@@H]1CCNC1=O)C2(C)C` [Compound 12, (1R,2S,5S)-3-((S)-3,3-dimethyl-2-(2,2,2-trifluoroacetamido)butanoyl)-6,6-dimethyl-N—((S)-1-oxo-3-((S)-2-oxopyrrolidin-3-yl)propan-2-yl)-3-azabicyclo[3.1.0]hexane-2-carboxamide]: the IC50 worked out at 33.8 nM in experiment [1]; 21.2 nM in experiment [2]; 15 nM in experiment [4]; 37 nM in experiment [5]; 53.9 nM in experiment [6]; 175 nM in experiment [7].

Consider `O=C[C@H](C[C@@H]1CCNC1=O)NC(=O)[C@@H]1[C@H]2CCC[C@H]2CN1C(=O)COc1ccc(Cl)cc1Cl` [Compound 63, (1S,3aR,6aS)-2-(2-(2,4-Dichlorophenoxy)acetyl)-N—((S)-1-oxo-3-((S)-2-oxopyrrolidin-3-yl)propan-2-yl)octahydrocyclopenta[c]pyrrole-1-carboxamide], for which the IC50 is 53.8 nM in experiment [1]; 32.1 nM in experiment [2]; 39.7 nM in experiment [4]; 66.8 nM in experiment [5]; 105 nM in experiment [6]; 382 nM in experiment [7].

Regarding `CC1(C)[C@@H]2[C@@H](C(=O)N[C@H](C=O)C[C@@H]3CCNC3=O)N(C(=O)CC3CCCCC3)C[C@@H]21` [Compound 54, (1R,2S,5S)-3-(2-Cyclohexylacetyl)-6,6-dimethyl-N—((S)-1-oxo-3-((S)-2-oxopyrrolidin-3-yl)propan-2-yl)-3-azabicyclo[3.1.0]hexane-2-carboxamide], the IC50 came to 36.4 nM in experiment [1] (read-out: Mpro_229E mean IC50, mean, 50 nM protein, 12.5 μM substrate, 30 min pre-incubation, 60 min at 30° C.); 37.8 nM in experiment [2] (read-out: Mpro_SARS-CoV-1 mean IC50, mean, 25 nM protein (SARS_Mpro), 25 μM substrate, 30 min pre-incubation, 60 min at 30° C.); 18.8 nM in experiment [4] (read-out: Mpro_HKU1 mean IC50, mean, 12.5 nM protein, 12.5 μM substrate, 30 min pre-incubation, 60 min at 30° C.); 56.7 nM in experiment [5] (read-out: Mpro_OC43 mean IC50, mean, 25 nM protein, 12.5 μM substrate, 30 min pre-incubation, 60 min at 30° C.); 42.6 nM in experiment [6] (read-out: Mpro_NL63 mean IC50, mean, 50 nM protein, 12.5 μM substrate, 30 min pre-incubation, 60 min at 30° C.); 285 nM in experiment [7] (read-out: Mpro_MERS mean IC50, mean, 100 nM protein, 25 μM substrate, 30 min pre-incubation, 60 min at 30° C.).

The values are drawn from patent US20260355212A1 (priority 2022, published 2026).
